Activity calls are given as the source filed them. No cut-off for these calls is given here.
How the values were obtained:
[1] = molecular target: Histone deacetylase 1 (Homo sapiens, UniProt Q13547); test: Inhibition of HDAC1
[2] = tested on: HCT-116; test: Antiproliferative activity against human HCT116 cells after 72 hrs; type: functional; settings: HCT-116, 72 h
[3] = AUC in mouse at 150 mg/kg, po; type: ADME, organism-based, Plasma; set-up: dose 150 mg/kg, route oral; settings: whole blood
[4] = Cmax in mouse at 150 mg/kg, po; type: ADME, organism-based; set-up: dose 150 mg/kg, route oral; settings: in vivo
[5] = tested on: HCT-116; test: Antitumor activity against human HCT116 cells xenografted in po dosed mouse assessed as reduction in tumor growth dosed daily for 21 days; type: functional, organism-based
[6] = molecular target: T1, Histone deacetylase 8 (Homo sapiens, UniProt Q9BY41); test: Inhibition of HDAC8
T1 sequence (Q9BY41 whole entry): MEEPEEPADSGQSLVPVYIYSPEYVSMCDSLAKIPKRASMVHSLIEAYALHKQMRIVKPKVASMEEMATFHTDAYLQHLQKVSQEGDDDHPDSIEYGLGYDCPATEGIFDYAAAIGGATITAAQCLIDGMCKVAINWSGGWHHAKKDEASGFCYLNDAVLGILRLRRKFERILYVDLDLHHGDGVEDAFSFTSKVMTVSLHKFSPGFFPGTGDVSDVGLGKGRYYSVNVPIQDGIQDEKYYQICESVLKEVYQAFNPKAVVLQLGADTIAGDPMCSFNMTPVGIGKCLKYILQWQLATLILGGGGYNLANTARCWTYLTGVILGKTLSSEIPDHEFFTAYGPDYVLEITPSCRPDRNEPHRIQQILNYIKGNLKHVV

[7] = tested on: Mus musculus; test: Effect on histone H2B acetylation in human HCT116 cells xenografted in CD1 mouse assessed as change in ratio of acetylated to deacetylated histone level at 150 mg/kg, po QD for 3 days measured after 8 hrs; type: functional, organism-based; set-up: dose 150 mg/kg; settings: HCT-116
[8] = molecular target: Histone deacetylase 2 (Homo sapiens, UniProt Q92769); test: Inhibition of HDAC2
[9] = molecular target: T2, Protein deacetylase HDAC6 (Homo sapiens, UniProt Q9UBN7); test: Inhibition of HDAC6
T2 sequence (Q9UBN7 whole entry): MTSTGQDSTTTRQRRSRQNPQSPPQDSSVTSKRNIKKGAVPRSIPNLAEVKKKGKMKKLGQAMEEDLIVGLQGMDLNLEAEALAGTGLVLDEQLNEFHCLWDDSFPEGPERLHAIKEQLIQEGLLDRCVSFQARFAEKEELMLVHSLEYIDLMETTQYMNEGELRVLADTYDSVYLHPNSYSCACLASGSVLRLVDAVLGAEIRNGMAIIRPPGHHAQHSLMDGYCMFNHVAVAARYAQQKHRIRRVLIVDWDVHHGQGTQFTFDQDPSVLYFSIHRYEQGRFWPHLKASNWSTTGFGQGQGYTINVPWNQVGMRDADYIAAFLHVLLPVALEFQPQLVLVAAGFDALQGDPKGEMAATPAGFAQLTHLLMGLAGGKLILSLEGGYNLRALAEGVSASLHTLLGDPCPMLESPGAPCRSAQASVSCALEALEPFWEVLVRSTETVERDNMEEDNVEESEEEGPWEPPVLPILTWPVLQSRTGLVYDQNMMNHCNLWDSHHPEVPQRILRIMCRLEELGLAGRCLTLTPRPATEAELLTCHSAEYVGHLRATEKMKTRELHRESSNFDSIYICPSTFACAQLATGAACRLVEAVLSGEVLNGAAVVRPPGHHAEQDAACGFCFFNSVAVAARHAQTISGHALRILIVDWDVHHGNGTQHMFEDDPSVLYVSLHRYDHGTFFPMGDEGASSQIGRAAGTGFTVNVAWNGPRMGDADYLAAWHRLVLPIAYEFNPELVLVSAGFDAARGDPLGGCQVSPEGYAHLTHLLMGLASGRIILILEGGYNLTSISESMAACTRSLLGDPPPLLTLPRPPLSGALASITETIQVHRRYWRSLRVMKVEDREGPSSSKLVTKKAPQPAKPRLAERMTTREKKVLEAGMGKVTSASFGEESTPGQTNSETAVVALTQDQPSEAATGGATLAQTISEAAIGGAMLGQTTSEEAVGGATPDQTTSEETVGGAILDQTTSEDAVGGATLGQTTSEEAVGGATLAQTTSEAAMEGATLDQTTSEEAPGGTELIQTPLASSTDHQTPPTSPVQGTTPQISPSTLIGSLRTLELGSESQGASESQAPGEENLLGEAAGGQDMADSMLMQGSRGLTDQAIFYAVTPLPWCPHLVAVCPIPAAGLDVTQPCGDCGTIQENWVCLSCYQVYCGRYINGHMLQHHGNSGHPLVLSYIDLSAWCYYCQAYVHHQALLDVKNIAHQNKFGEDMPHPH

[10] = molecular target: T3, Histone deacetylase 7 (Homo sapiens, UniProt Q8WUI4); test: Inhibition of HDAC7
T3 sequence (Q8WUI4 whole entry): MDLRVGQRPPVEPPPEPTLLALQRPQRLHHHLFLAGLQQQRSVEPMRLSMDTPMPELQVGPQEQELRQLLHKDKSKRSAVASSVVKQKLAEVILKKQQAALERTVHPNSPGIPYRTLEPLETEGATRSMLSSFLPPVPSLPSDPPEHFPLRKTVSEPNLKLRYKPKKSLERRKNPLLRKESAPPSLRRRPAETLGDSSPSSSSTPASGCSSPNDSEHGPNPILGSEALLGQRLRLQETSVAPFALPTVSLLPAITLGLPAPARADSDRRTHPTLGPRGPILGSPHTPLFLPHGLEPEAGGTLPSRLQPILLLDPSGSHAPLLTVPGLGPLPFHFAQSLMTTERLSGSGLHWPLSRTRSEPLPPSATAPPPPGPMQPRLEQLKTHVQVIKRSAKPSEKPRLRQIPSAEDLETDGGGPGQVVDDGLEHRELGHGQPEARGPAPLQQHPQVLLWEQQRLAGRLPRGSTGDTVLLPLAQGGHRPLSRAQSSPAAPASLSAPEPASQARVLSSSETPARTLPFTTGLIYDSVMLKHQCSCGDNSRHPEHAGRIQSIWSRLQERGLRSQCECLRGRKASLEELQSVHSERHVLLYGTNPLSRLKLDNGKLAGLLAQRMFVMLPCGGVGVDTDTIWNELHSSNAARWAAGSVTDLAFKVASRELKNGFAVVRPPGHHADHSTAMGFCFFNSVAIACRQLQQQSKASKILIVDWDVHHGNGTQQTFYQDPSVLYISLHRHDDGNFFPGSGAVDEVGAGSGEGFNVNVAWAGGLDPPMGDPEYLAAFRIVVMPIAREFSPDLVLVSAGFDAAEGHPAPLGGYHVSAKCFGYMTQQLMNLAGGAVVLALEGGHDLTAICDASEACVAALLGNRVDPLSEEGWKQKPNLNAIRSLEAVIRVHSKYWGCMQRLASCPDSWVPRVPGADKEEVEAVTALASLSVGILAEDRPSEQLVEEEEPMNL

[11] = molecular target: T4, Histone deacetylase 11 (Homo sapiens, UniProt Q96DB2); test: Inhibition of HDAC11
T4 sequence (Q96DB2 whole entry): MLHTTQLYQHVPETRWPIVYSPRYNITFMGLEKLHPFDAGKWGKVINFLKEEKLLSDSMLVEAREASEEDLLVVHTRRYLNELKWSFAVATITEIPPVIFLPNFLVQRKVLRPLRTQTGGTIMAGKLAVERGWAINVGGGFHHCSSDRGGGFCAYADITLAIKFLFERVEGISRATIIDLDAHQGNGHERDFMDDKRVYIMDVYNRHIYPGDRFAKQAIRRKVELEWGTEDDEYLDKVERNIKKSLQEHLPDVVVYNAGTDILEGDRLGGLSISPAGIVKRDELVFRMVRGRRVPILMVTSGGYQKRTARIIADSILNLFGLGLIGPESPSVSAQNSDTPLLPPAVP

[12] = tested on: Mus musculus; test: Toxicity in human HCT116 cells xenografted CD1 mouse at 150 to 300 mg/kg, po after 21 days; type: organism-based, HCT-116; set-up: dose 150-300 mg/kg, route oral; settings: in vivo, 504 h
[13] = molecular target: Histone deacetylase 3 (Homo sapiens, UniProt O15379); test: Inhibition of HDAC3
[14] = molecular target: Histone deacetylase 4 (Homo sapiens, UniProt P56524); test: Inhibition of HDAC4
[15] = molecular target: Histone deacetylase 5 (Homo sapiens, UniProt Q9UQL6); test: Inhibition of HDAC5
Chain of Histone deacetylase 5 (Q9UQL6 whole entry): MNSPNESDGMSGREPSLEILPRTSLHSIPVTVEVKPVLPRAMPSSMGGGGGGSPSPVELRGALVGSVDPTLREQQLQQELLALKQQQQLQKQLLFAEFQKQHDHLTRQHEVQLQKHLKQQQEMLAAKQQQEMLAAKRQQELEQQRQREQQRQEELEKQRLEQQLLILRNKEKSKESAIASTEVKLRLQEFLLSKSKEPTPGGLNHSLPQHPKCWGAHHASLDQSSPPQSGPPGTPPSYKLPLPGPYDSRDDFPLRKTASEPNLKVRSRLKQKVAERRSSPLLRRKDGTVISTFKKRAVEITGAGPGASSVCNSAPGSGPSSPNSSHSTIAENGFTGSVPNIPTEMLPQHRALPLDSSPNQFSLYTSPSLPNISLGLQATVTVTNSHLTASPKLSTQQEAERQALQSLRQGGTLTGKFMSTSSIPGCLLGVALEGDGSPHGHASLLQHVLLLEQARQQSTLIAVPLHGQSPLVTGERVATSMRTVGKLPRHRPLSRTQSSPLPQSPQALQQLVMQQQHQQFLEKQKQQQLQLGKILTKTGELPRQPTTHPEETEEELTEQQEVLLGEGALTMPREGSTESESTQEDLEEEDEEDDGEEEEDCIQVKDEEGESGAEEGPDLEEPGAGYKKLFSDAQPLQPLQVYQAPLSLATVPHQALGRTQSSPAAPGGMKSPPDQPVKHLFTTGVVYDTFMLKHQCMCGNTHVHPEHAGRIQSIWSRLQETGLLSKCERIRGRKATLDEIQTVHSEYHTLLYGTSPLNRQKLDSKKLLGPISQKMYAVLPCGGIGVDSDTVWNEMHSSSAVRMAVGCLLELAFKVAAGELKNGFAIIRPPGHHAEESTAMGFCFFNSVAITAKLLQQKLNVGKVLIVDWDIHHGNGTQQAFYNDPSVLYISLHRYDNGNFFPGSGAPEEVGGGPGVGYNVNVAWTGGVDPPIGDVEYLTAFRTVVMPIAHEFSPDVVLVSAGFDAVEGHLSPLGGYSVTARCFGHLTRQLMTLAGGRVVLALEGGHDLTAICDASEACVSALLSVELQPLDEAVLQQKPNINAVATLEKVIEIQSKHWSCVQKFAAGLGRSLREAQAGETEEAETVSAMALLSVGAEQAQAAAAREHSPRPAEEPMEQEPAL

Chain of Histone deacetylase 1 (Q13547 whole entry): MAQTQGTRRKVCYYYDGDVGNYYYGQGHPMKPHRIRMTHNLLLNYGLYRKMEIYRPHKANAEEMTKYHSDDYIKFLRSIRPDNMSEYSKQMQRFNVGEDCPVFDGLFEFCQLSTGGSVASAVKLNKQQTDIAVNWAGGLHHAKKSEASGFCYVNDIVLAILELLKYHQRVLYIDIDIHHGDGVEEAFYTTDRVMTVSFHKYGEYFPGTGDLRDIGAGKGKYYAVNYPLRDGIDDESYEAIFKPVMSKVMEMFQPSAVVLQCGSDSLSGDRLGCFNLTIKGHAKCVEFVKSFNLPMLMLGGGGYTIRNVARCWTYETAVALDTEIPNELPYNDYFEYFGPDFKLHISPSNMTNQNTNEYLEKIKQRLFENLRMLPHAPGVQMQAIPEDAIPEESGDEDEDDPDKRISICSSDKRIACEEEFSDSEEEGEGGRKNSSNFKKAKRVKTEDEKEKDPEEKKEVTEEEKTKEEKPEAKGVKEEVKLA
Chain of Histone deacetylase 3 (O15379 whole entry): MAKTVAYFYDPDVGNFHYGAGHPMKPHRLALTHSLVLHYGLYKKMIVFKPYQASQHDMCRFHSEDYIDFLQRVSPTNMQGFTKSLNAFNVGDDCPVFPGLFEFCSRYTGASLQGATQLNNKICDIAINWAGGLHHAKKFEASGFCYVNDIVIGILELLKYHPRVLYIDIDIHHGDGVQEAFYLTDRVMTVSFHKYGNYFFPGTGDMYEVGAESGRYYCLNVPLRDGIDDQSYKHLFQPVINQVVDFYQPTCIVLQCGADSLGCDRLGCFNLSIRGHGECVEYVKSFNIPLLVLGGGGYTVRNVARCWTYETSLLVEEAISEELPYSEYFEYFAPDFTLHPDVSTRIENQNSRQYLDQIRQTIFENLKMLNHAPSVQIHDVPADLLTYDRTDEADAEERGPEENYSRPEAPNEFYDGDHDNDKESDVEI
Chain of Histone deacetylase 2 (Q92769 whole entry): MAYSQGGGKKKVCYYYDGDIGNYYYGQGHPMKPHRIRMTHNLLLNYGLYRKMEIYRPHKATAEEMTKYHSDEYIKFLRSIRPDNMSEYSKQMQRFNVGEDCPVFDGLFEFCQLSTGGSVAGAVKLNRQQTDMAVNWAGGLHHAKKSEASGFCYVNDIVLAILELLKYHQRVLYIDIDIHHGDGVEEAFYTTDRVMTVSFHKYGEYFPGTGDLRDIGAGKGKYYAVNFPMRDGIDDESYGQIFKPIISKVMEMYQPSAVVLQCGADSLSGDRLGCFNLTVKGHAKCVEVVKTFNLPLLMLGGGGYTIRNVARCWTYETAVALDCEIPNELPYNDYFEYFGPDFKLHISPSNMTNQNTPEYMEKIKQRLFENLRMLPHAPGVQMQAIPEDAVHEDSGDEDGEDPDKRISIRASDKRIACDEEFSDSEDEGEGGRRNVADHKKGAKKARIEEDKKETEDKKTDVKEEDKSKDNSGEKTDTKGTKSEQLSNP
Chain of Histone deacetylase 4 (P56524 whole entry): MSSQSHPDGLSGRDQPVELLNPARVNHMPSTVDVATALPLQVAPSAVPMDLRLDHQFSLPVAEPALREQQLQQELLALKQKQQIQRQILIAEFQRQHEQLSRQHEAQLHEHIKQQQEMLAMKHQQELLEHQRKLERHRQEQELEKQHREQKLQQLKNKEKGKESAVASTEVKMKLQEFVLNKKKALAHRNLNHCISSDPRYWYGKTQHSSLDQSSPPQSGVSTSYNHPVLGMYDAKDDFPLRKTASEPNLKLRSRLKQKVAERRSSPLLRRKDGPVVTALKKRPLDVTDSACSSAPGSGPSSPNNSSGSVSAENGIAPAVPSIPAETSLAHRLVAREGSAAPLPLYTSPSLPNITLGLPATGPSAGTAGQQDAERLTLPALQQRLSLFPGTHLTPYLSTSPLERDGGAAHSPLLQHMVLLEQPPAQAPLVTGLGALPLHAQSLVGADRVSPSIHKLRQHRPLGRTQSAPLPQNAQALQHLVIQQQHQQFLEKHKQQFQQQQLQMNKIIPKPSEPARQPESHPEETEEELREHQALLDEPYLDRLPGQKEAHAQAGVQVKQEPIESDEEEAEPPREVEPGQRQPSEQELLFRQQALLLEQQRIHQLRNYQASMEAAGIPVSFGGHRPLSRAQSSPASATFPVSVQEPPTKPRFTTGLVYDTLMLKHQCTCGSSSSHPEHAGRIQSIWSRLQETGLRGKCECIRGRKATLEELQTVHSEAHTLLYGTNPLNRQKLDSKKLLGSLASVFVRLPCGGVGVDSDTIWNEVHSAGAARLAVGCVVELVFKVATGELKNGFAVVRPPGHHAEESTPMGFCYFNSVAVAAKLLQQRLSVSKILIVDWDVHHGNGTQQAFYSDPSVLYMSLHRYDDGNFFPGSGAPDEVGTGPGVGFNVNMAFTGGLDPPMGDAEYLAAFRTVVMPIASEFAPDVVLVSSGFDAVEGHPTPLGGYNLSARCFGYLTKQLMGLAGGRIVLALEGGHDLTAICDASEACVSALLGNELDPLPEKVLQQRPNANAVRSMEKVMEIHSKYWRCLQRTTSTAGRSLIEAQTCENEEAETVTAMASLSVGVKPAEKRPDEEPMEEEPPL

Row | Compound | IC50 [1] [nM] | GI50 [2] [nM] | AUC [3] [µM·h] | Cmax [4] [µM] | other results
1 | Nc1ccc(-c2cccs2)cc1NC(=O)c1ccc(CP(=O)(O)c2ccccc2)cc1 | 28 | > 20000 | – | – | –
2 | COP(=O)(Cc1ccc(C(=O)Nc2cc(-c3cccs3)ccc2N)cc1)c1ccccc1 (stereo unspecified) | 20 | 360 | – | – | –
3 | COP(=O)(Cc1cccc(C(=O)Nc2cc(-c3cccs3)ccc2N)c1)c1ccccc1 (stereo unspecified) | 140 | 8600 | – | – | –
4 | CCP(=O)(Cc1cccc(C(=O)Nc2cc(-c3cccs3)ccc2N)c1)OC (stereo unspecified) | 90 | 6000 | – | – | –
5 | CCOP(=O)(c1ccccc1)c1ccc(C(=O)Nc2cc(-c3cccs3)ccc2N)cc1 (stereo unspecified) | 21 | 170 | 0.91 | 0.56 | –
6 | CCOP(C)(=O)c1ccc(C(=O)Nc2cc(-c3cccs3)ccc2N)cc1 (stereo unspecified) | 14 | 460 | 44 | 43 | –
7 | CC(C)P(=O)(Cc1ccc(C(=O)Nc2cc(-c3cccs3)ccc2N)cc1)C(C)C | 11 | 270 | 1.3 | 1.9 | –
8 | CCP(=O)(CC)Cc1ccc(C(=O)Nc2cc(-c3cccs3)ccc2N)cc1 | 9 | 200 | 17 | 14 | –
9 | CCOP(=O)(OCC)c1ccc(C(=O)Nc2cc(-c3cccs3)ccc2N)cc1 | 22 | 410 | – | – | –
10 | CCOP(=O)(CNCc1ccc(C(=O)Nc2cc(-c3cccs3)ccc2N)cc1)OCC | 7.7 | 300 | – | – | Activity [5]: Dose-dependent effect; IC50 [6]: 37000 nM; Activity [7]: Active; IC50 [8]: 14 nM; IC50 [9]: > 50000 nM; IC50 [10]: > 50000 nM; IC50 [11]: > 50000 nM; Activity [12]: Non-toxic; IC50 [13]: 12000 nM; IC50 [14]: > 50000 nM; IC50 [15]: > 50000 nM
11 | CCOP(=O)(Cc1cccc(C(=O)Nc2cc(-c3cccs3)ccc2N)c1)OCC | 23 | 2500 | – | – | –
